# From patent US20260271929A1, “FUNGICIDAL COMBINATIONS, MIXTURES AND COMPOSITIONS AND USES THEREOF” (ADAMA MAKHTESHIM LTD., priority 2023, published 2026)
# Read-outs that look alike come from different tables or passages of the source.
# System: Rhizoctonia solani
# Assay: Microtiter plate (MTP) fungal growth inhibition assay, OD at 590 nm after 5 days; interaction by Wadley approach
# Assay type: cell-based
# Settings: for EC50: Rhizoctonia solani
# Description: In the […] method, synergistic activity is determined from dose response curves. With this method, the efficacy of the active ingredient (“a.i.”) is determined by comparing the degree of fungal attack on treated plants with that on untreated, similarly inoculated and incubated check plants. Each a.i. is generally tested at multiple. (e.g., 6) 25 concentrations, and dose response curves are generated. The dose response curves are used to establish the EC50 (i.e., the effective concentration of a.i. providing 50% disease control) of the individual compounds as well as of the combinations (EC50Observed) The experimentally found values of the mixture at a given weight ratio are compared with the values that would have been found were only a complementary efficacy of the components was present as follows: 5 [formula] • A and B=the single products tested • a and b=the ratio of each product in the mixture • ECA and ECB=observed effective concentration of the single products A and B at different control levels (50 or 90%) 10 The ratio EC50 (A+B)Theo/EC50(A+B)observed expresses the factor of interaction level (R) which may be interpreted in accordance with the following Table: [table] The compound of Formula I, […] and Pyridachlometyl were tested straight or in mixture on the Rhizoctonia solani pathogen. the active ingredients straight or in mixture were diluted in a suitable solvent to a set of concentrations. Two fungicide ratios were tested for each combination between the compound of Formula I and Chloroinconazide or Pyridachlometyl. One hundred microliters of sterile distilled water with or without fungicide were added to 100 μl of pathogen suspension into each well in a microtiter plate (MTP). Each bioassay was carried out with the following 8 treatment groups corresponding to 8 concentrations of the fungicide mixture. In the MTP assay, 3 replicates (wells) were carried out for each concentration of fungicide mixture. The MTPs were incubated in the dark at 19° C. for 5 days under saturated humidity in order to avoid evaporation. Then, the fungal growth in each well was estimated by measuring the Optical Density (OD) at 590 nm with a BMG plate reader (FLUOstar Omega, BMG Labtech). The OD values at 5 days were automatically corrected by comparison with those measured at day zero (inoculation day). The generated data were transferred to the MARS Data Analysis software (BMG Labtech) which allows to calculate percentage of growth inhibition induced by each concentration of fungicide tested. Finally, the EC50 of each product and mixture was determined. • (i) No bacterial nor fungal contamination at any stage of the assay must be observed. • (ii) A normal and constant mycelium growth must be observed in the control wells (without fungicide). • (iii) At the end of the evaluation the final minimum OD must reach at least a value of 0.25 Absorbance's Unit (AU).
# [1] = MTP, 5 days at 19° C., OD 590 nm
# [2] = Table 9, active ingredient straight
smiles,measurement,setting,value
CC1N[C@H](C(=O)N/N=C/c2ccc(Cl)cc2)Cc2c1[nH]c1ccccc21 (stereo partly drawn) [Chloroinconazide],percentage of growth inhibition,Dose 0.110,14.4%
same,percentage of growth inhibition,Dose 0.329,2.0%
same,percentage of growth inhibition,Dose 0.988,24.1%
same,percentage of growth inhibition,Dose 2.96,9.1%
same,percentage of growth inhibition,Dose 8.89,19.5%
same,percentage of growth inhibition,Dose 26.7,99.3%
same,percentage of growth inhibition,Dose 80,100.1%
same,EC50,[1],15.399 µg/mL
same,EC50 observed,[2],15.3990 µg/mL
"Cc1ccc(S(=O)(=O)n2cc(F)c(=N)n(C)c2=O)cc1 [Compound (I), 5-fluoro-4-imino-3-methyl-1-tosyl-3,4-dihydropyrimidin-2(1H)-one]",EC50,"120 h, MTP, 5 days at 19° C., OD 590 nm, read-out: EC50",> 320 µg/mL
same,percentage of growth inhibition,Dose 0.020,15.8%
same,percentage of growth inhibition,Dose 0.102,23.9%
same,percentage of growth inhibition,Dose 0.512,22.5%
same,percentage of growth inhibition,Dose 2.56,0.7%
same,percentage of growth inhibition,Dose 12.8,13.5%
same,percentage of growth inhibition,Dose 64,27.7%
same,percentage of growth inhibition,Dose 320,40.1%
same,EC50,"Table 9, active ingredient straight, read-out: EC50 observed",≥ 320 µg/mL
Cc1nnc(Cl)c(-c2c(F)cccc2F)c1-c1ccccc1 [Pyridachlometyl],percentage of growth inhibition,Dose 0.00781,−1.1%
same,percentage of growth inhibition,Dose 0.01563,2.6%
same,percentage of growth inhibition,Dose 0.03125,3.7%
same,percentage of growth inhibition,Dose 0.06250,12.7%
same,percentage of growth inhibition,Dose 0.12500,68.7%
same,percentage of growth inhibition,Dose 0.2500,76.0%
same,percentage of growth inhibition,Dose 0.500,77.2%
same,EC50,[1],0.111 µg/mL
same,EC50 observed,[2],0.1115 µg/mL
